Laboratory results: patent US20170050957A1, “4-AMINO-6-(HETEROCYCLIC)PICOLINATES AND 6-AMINO-2-(HETEROCYCLIC)PYRIMIDINE-4-CARBOXYLATES AND THEIR USE AS HERBICIDES” (Dow AgroSciences LLC, priority 2013, published 2017)
Read-outs that look alike come from different tables or passages of the source.

Assays:
[1] = system: Key Broadleaf Weed and Crop Species; test: Post-emergent Test II herbicidal activity (Table 15); assay type: in vivo; details: post-emergence, 336 h, 14 d; for pest or weed control at 35 g/ha: 35 g ai/ha; for pest or weed control at 70 g/ha: 70 g ai/ha; for pest or weed control at 140 g/ha: 140 g ai/ha
In short: (§1)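 Herbicidal effect scored as percent visual injury, 14 d after post-emergent application. Spray solutions contained acetone, DMSO, isopropyl alcohol, crop oil concentrate and surfactant, applied at 187 L/ha to young plants (1-2 true leaves).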

[2] = system: Key Grass and Sedge Weeds as well as Grass Crops; test: Post-emergent Test II herbicidal activity (Table 16); assay type: in vivo; details: post-emergence, 336 h, 14 d; for pest or weed control at 35 g/ha: 35 g ai/ha; for pest or weed control at 70 g/ha: 70 g ai/ha; for pest or weed control at 140 g/ha: 140 g ai/ha
In short: as §1

[3] = Abutilon theophrasti, velvetleaf (Abutilon theophrasti), read-out: Visual Growth Reduction (%) 14 Days After Application, ABUTH
[4] = Amaranthus retroflexus, redroot pigweed (Amaranthus retroflexus), read-out: Visual Growth Reduction (%) 14 Days After Application, AMARE
[5] = Brassica napus, oilseed rape, canola (Brassica napus), read-out: Visual Growth Reduction (%) 14 Days After Application, BRSNN
[6] = Chenopodium album, lambsquarters (Chenopodium album), read-out: Visual Growth Reduction (%) 14 Days After Application, CHEAL
[7] = Euphorbia heterophylla, wild poinsettia (Euphorbia heterophylla), read-out: Visual Growth Reduction (%) 14 Days After Application, EPHHL
[8] = Helianthus annuus, sunflower (Helianthus annuus), read-out: Visual Growth Reduction (%) 14 Days After Application, HELAN
[9] = Cyperus esculentus, yellow nutsedge (Cyperus esculentus), read-out: Visual Growth Reduction (%) 14 Days After Application, CYPES
[10] = Echinochloa crus-galli, barnyardgrass (Echinochloa crus-galli), read-out: Visual Growth Reduction (%) 14 Days After Application, ECHCG
[11] = Oryza sativa, rice (Oryza sativa), read-out: Visual Growth Reduction (%) 14 Days After Application, ORYSA
[12] = Setaria faberi, giant foxtail (Setaria faberi), read-out: Visual Growth Reduction (%) 14 Days After Application, SETFA
[13] = Triticum aestivum, wheat, spring (Triticum aestivum), read-out: Visual Growth Reduction (%) 14 Days After Application, TRZAS
[14] = Zea mays, maize, corn (Zea mays), read-out: Visual Growth Reduction (%) 14 Days After Application, ZEAMX

SMILES	pest or weed control at 35 g/ha [1, 3]	pest or weed control at 70 g/ha [1, 3]	pest or weed control at 140 g/ha [1, 3]	pest or weed control at 35 g/ha [1, 4]	pest or weed control at 70 g/ha [1, 4]	pest or weed control at 140 g/ha [1, 4]	pest or weed control at 35 g/ha [1, 5]	pest or weed control at 70 g/ha [1, 5]	pest or weed control at 140 g/ha [1, 5]	pest or weed control at 35 g/ha [1, 6]	pest or weed control at 70 g/ha [1, 6]	pest or weed control at 140 g/ha [1, 6]	pest or weed control at 35 g/ha [1, 7]	pest or weed control at 70 g/ha [1, 7]	pest or weed control at 140 g/ha [1, 7]	pest or weed control at 35 g/ha [1, 8]	pest or weed control at 70 g/ha [1, 8]	pest or weed control at 140 g/ha [1, 8]	pest or weed control at 35 g/ha [2, 9]	pest or weed control at 70 g/ha [2, 9]	further results
COC(=O)c1nc(-c2ccc3cc[nH]c3c2F)c(Cl)c(N)c1Cl [Compound 1.07]	0 to 29%	0 to 29%	0 to 29%	85 to 94%	95 to 100%	95 to 100%	0 to 29%	0 to 29%	0 to 29%	85 to 94%	85 to 94%	85 to 94%	60 to 74%	60 to 74%	60 to 74%	95 to 100%	95 to 100%	95 to 100%	0 to 29%	0 to 29%	pest or weed control at 140 g/ha [2, 9]: 0 to 29%; pest or weed control at 35 g/ha [2, 10]: 0 to 29%; pest or weed control at 70 g/ha [2, 10]: 0 to 29%; pest or weed control at 140 g/ha [2, 10]: 0 to 29%; pest or weed control at 35 g/ha [2, 11]: 0 to 29%; pest or weed control at 70 g/ha [2, 11]: 0 to 29%; pest or weed control at 140 g/ha [2, 11]: 0 to 29%; pest or weed control at 35 g/ha [2, 12]: 60 to 74%; pest or weed control at 70 g/ha [2, 12]: 75 to 84%; pest or weed control at 140 g/ha [2, 12]: 75 to 84%; pest or weed control at 35 g/ha [2, 13]: 0 to 29%; pest or weed control at 70 g/ha [2, 13]: 0 to 29%; pest or weed control at 140 g/ha [2, 13]: 0 to 29%; pest or weed control at 35 g/ha [2, 14]: 0 to 29%; pest or weed control at 70 g/ha [2, 14]: 0 to 29%; pest or weed control at 140 g/ha [2, 14]: 0 to 29%
COC(=O)c1nc(-c2cc3[nH]ccc3cc2F)c(F)c(N)c1Cl [Compound 1.13]	0 to 29%	0 to 29%	0 to 29%	0 to 29%	30 to 44%	30 to 44%	0 to 29%	0 to 29%	30 to 44%	60 to 74%	75 to 84%	85 to 94%	0 to 29%	0 to 29%	30 to 44%	45 to 59%	60 to 74%	60 to 74%	0 to 29%	0 to 29%	pest or weed control at 140 g/ha [2, 9]: 0 to 29%; pest or weed control at 35 g/ha [2, 10]: 0 to 29%; pest or weed control at 70 g/ha [2, 10]: 0 to 29%; pest or weed control at 140 g/ha [2, 10]: 0 to 29%; pest or weed control at 35 g/ha [2, 11]: 0 to 29%; pest or weed control at 70 g/ha [2, 11]: 0 to 29%; pest or weed control at 140 g/ha [2, 11]: 0 to 29%; pest or weed control at 35 g/ha [2, 12]: 0 to 29%; pest or weed control at 70 g/ha [2, 12]: 0 to 29%; pest or weed control at 140 g/ha [2, 12]: 0 to 29%; pest or weed control at 35 g/ha [2, 13]: 0 to 29%; pest or weed control at 70 g/ha [2, 13]: 0 to 29%; pest or weed control at 140 g/ha [2, 13]: 0 to 29%; pest or weed control at 35 g/ha [2, 14]: 0 to 29%; pest or weed control at 70 g/ha [2, 14]: 0 to 29%; pest or weed control at 140 g/ha [2, 14]: 0 to 29%
